Where a chain is given by its changes, count along the chain named.
Assays:
TRPV3-D512A = target: T1, TRPV3-D512A (Homo sapiens, UniProt Q8NET8, D512A); assay: Whole-cell and single-channel recordings of the TRPV3-D512A mutant; assay type: cell-based
T1 sequence (Q8NET8 1-790 D512A): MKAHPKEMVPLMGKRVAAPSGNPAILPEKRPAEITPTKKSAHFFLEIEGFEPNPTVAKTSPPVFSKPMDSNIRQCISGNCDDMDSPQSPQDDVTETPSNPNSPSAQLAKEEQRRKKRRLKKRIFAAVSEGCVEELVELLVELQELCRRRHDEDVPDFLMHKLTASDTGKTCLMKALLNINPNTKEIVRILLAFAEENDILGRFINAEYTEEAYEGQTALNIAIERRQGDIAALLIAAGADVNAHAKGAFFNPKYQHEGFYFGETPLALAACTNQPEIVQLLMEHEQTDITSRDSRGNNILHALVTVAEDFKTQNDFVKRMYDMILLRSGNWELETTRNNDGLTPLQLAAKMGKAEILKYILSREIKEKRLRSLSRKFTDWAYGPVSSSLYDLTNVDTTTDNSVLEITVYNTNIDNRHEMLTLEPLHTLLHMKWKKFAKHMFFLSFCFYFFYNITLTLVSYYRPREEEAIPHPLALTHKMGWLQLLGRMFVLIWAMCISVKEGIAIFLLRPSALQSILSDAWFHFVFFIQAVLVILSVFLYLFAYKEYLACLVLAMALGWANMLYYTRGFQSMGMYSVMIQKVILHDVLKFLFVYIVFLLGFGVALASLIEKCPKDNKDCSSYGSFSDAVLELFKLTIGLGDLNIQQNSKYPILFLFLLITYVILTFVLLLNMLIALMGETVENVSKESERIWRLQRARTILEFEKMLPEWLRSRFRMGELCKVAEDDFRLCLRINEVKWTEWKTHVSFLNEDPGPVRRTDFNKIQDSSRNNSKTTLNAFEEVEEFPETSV

TRPV3-R509A = target: T2, TRPV3-R509A (Homo sapiens, UniProt Q8NET8, R509A); assay: Whole-cell and single-channel recordings of the TRPV3-R509A mutant; assay type: cell-based
T2 sequence (Q8NET8 1-790 R509A): T1 sequence (Q8NET8 1-790 D512A) with R509A, A512D

TRPV3-L508F = target: T3, TRPV3-L508F (Homo sapiens, UniProt Q8NET8, L508F); assay: Whole-cell and single-channel recordings of the TRPV3-L508F mutant; assay type: cell-based; conditions: carvacrol 0.3-3.0 mM or 50 μM 2-APB
T3 sequence (Q8NET8 1-790 L508F): T1 sequence (Q8NET8 1-790 D512A) with L508F, A512D

mice = conditions: mice, but not TRPV3-KO mice; ref [33], [34]; cited from earlier work

Cc1ccc(C(C)C)cc1O [carvacrol, 5-Isopropyl-2-methylphenol]
EC50 (TRPV3-D512A): 3.21 ± 0.48 mM
right shift of channel activation versus WT TRPV3 (TRPV3-D512A; D512A versus WT): over 10 fold
sensitivity of TRPV3 D512A mutant channel (TRPV3-D512A; carvacrol 0.3-3.0 mM): decreased the sensitivity
EC50 (TRPV3-R509A): 2.93 ± 0.11 mM
right shift of channel activation versus WT TRPV3 (TRPV3-R509A; R509A versus WT): over 10 fold
sensitivity of TRPV3 R509A mutant channel (TRPV3-R509A; macroscopic and single-channel current levels): decreased the channel sensitivity
activation of TRPV3 L508F mutant channel (TRPV3-L508F): ablated TRPV3 activation
pruritus on pharmacological activation of TRPV3 (mice): induces pruritus

Reference: paper PMC8920929 (The Journal of Biological Chemistry, 2022)
